Experimental data published in patent publication US7772192B2, “Compositions and methods for treatment of disease with acetylated disaccharides” (The Regents of the University of California, priority 2003, dated 2010).

System: LS180 cells adhering to recombinant P-selectin
Experiment: Cell adhesion to immobilized P-selectin
Format: cell-based, human
Settings: LS180 cells grown 5 days with disaccharide
Experimental: Cell adhesion to immobilized selectins. 96-well plates were coated overnight at 4° C. with recombinant E-selectin (4 μg/ml) or P-selectin (2 μg/ml) (R & D Systems) and blocked with 1% BSA/PBS. LS180 cells were grown for 5 days with various amounts of acetylated disaccharide, harvested, labeled with Calcein AM (5 μM, Molecular Probes) in DMEM/1% FBS, and allowed to settle at room temperature on selectin-coated wells (5×10^4 cells/well). Plates were then stirred at 75 rpm for 30 min (Orbit shaker, Lab-Line Instruments) followed by immersion upside-down in a vessel filled with Hank's buffered saline solution (HBSS, Sigma), which allowed non-adherent cells to fall under gravity. St John et al., J. Immunol Methods, 170: 159-166, 1994. The wells were then washed by aspiration using HBSS. LS180 cells were less adherent to P-selectin, so the immersion step was not necessary prior to washing. […] Fluorescence was measured using a 96-well fluorimeter (CytoFluor II), and the average of triplicate measurements was determined±standard error. Cell viability was judged to be >90% by Trypan blue exclusion at the end of each experiment.
Adhesion to selectins is altered in disaccharide-treated tumor cells. Treatment of LS180 cells with AcGnG-NM was not toxic to the cells up to 100 μM based on growth curves and exclusion of Trypan blue. […]

## GlcNAcβ1,3Galβ-O-naphthalenemethanol [AcGnG-NM]
  adhesion to recombinant P-selectin: reduced the ability of LS180 cells to adhere
